Experimental data as given in patent publication US20230389542A1, “USE OF [(1,5-DIPHENYL-1H-PYRAZOL-3-YL)OXY] ACETIC ACID DERIVATIVES AND THEIR SALTS AND COMPOSITIONS CONTAINING THEM, FOR REDUCING PHYTOTOXIC EFFECTS OF AGROCHEMICALS, IN PARTICULAR OF HERBICIDES, IN USEFUL PLANTS AND CROP PLANTS” (BAYER AKTIENGESELLSCHAFT, priority 2020, published 2023).

Columns and labels:
[1] = system: summer barley (HORVS; cv. Montoya); assay: Relative action (efficacy code): reduction of damage by mesosulfuron-methyl on summer barley; format: in vivo; design: key: 0: no reduction in damage (appearance corresponding to the herbicide control); 1: slight reduction in damage; 2: distinct reduction in damage; 3: significant reduction in damage; 4: complete reduction in damage (appearance corresponding to the untreated control); conditions: visual, 9-13 days after application, 2 repeats coded separately
Protocol: 2.4 Relative Action of Selected Compounds of the Invention Using the Example of Reduction of Damage by Mesosulfuron-Methyl on Summer Barley (HORVS) The seeds of the crop plants to be treated are laid out in sandy loam in plastic pots (diameter˜4 cm), covered with soil and grown in a greenhouse under good conditions for germination and growth. The trial plants were treated at the early leaf stage (BBCH10-BBCH12). In the course of this, the inventive compounds of the general formula (I) formulated in the form of wettable powders (WP) were sprayed onto the above-ground parts of the plants as an aqueous suspension with a water application rate corresponding to 800 l/ha with addition of wetting agent (e.g. 0.2% Genapol-LRO or 0.2% Mero) in the specified dose. This was followed by the application of the herbicide. For this purpose, mesosulfuron-methyl, formulated in the form of water-dispersible granules (WG), was sprayed onto the above-ground parts of the plants in the form of an aqueous dispersion with a water application rate corresponding to 800 l/ha with addition of wetting agent (e.g. 0.2% Genapol-LRO or 1 l/ha Biopower) in a dose of 40-60 g/ha. The dose of the herbicide was chosen here such that it causes visually apparent damage (min. 30%, max. 75%) compared to untreated crop plants at the evaluation time on a control group of crop plants without safener treatment that were included in the same trial. After application, the plants were cultivated under good growth conditions in a greenhouse. 9-13 days after application, the efficacy of the test compounds was assessed visually. For this purpose, the appearance of the plants treated with the test compound and herbicide was compared to the corresponding herbicide controls (without safener; with clearly visible damage) and the untreated controls (without damage). The damage-reducing effect of the test compounds was expressed here separately for 2 repeats in graded efficacy codes according to the following scheme: • 0: no reduction in damage (appearance corresponding to the herbicide control) • 1: slight reduction in damage • 2: distinct reduction in damage • 3: significant reduction in damage • 4: complete reduction in damage (appearance corresponding to the untreated control) The trials show clear efficacy of the inventive compounds selected by way of example with regard to the reduction in damage to the summer barley crop plant (HORVS; cv. Montoya) caused by the herbicide mesosulfuron-methyl: […]

[2] = system: summer wheat (TRZAS; cv. Triso); assay: Relative action (efficacy code): reduction of damage by mesosulfuron-methyl on summer wheat; format: in vivo; design: key: 0: no reduction in damage (appearance corresponding to the herbicide control); 1: slight reduction in damage; 2: distinct reduction in damage; 3: significant reduction in damage; 4: complete reduction in damage (appearance corresponding to the untreated control); conditions: visual, 9-13 days after application
Protocol: 2.3 Relative Action of Selected Compounds of the Invention Using the Example of Reduction of Damage by Mesosulfuron-Methyl on Summer Wheat (TRZAS) The seeds of the crop plants to be treated are laid out in sandy loam in plastic pots (diameter μ4 cm), covered with soil and grown in a greenhouse under good conditions for germination and growth. The trial plants were treated at the early leaf stage (BBCH10-BBCH12). In the course of this, the inventive compounds of the general formula (I) formulated in the form of wettable powders (WP) were sprayed onto the above-ground parts of the plants as an aqueous suspension with a water application rate corresponding to 800 l/ha with addition of wetting agent (e.g. 0.2% Genapol-LRO or 0.2% Mero) in the specified dose. This was followed by the application of the herbicide. For this purpose, mesosulfuron-methyl, formulated in the form of water-dispersible granules (WG), was sprayed onto the above-ground parts of the plants in the form of an aqueous dispersion with a water application rate corresponding to 800 l/ha with addition of wetting agent (e.g. 0.2% Genapol-LRO or 1 l/ha Biopower) in a dose of 40-60 g/ha. The dose of the herbicide was chosen here such that it causes visually apparent damage (min. 30%, max. 75%) compared to untreated crop plants at the evaluation time on a control group of crop plants without safener treatment that were included in the same trial. After application, the plants were cultivated under good growth conditions in a greenhouse. 9-13 days after application, the efficacy of the test compounds was assessed visually. For this purpose, the appearance of the plants treated with the test compound and herbicide was compared to the corresponding herbicide controls (without safener; with clearly visible damage) and the untreated controls (without damage). The damage-reducing effect of the test compounds was expressed here in graded efficacy codes according to the following scheme: • 0: no reduction in damage (appearance corresponding to the herbicide control) • 1: slight reduction in damage • 2: distinct reduction in damage • 3: significant reduction in damage • 4: complete reduction in damage (appearance corresponding to the untreated control) The trials show clear efficacy of the inventive compounds selected by way of example with regard to the reduction in damage to the summer wheat crop plant (TRZAS; cv. Triso) caused by the herbicide mesosulfuron-methyl: […]

[3] = safener 500 g/ha + mesosulfuron-methyl 40-60 g/ha
[4] = safener 100 g/ha + mesosulfuron-methyl 40-60 g/ha

SMILES	Efficacy of the safener (efficacy code) [1, 3]	Efficacy of the safener (efficacy code) [2, 4]	Efficacy of the safener (efficacy code) [2, 3]	Efficacy of the safener (efficacy code) [1, 4]
CCOC(=O)COc1cc(-c2ccc(F)cc2)n(-c2ccc(Cl)cc2Cl)n1 [I.11-32]	2	2	2	
COC(=O)COc1cc(-c2ccc(F)cc2F)n(-c2ccc(Cl)cc2F)n1 [I.40-49]	2-3	3	3	2
CCOC(=O)COc1cc(-c2ccc(F)cc2F)n(-c2ccc(Cl)cc2F)n1 [I.41-49]	2	3	4	2
O=C(O)COc1cc(-c2ccc(F)cc2F)n(-c2ccc(Cl)cc2F)n1 [I.42-49]	3	3	4	2-3
CCOC(=O)COc1cc(-c2ccc(Cl)cc2F)n(-c2ccc(F)cc2Cl)n1 [I.47-48]	3	3	4	2
CCOC(=O)COc1cc(-c2ccc(Cl)cc2F)n(-c2ccc(Cl)cc2F)n1 [I.47-49]	3		3	2
CCOC(=O)COc1cc(-c2ccc(F)cc2Cl)n(-c2ccc(Cl)cc2F)n1 [I.50-49]	3	2	3	2-3
